Measurements published in ChEMBL document CHEMBL4130462, “Natural isoflavone biochanin A as a template for the design of new and potent 3-phenylquinolone efflux inhibitors against Mycobacterium avium” (Eur J Med Chem, 2017).
In brackets after ≈: the same amount, converted by molar mass.

Legend:
Mycobacterium avium [1] = experiment: Antimycobacterial activity against Mycobacterium avium ATCC 25291 assessed as reduction in bacterial viability incubated for 3 days by MTT assay; assay type: organism-based; conditions: mycobacterium avium subsp. avium atcc 25291, 72 h
Mycobacterium avium [2] = experiment: Antimycobacterial activity against Mycobacterium avium isolate MAV1 assessed as reduction in bacterial viability incubated for 3 days by MTT assay; assay type: organism-based; conditions: in vitro, 72 h
Mycobacterium avium [3] = experiment: Antimycobacterial activity against Mycobacterium avium isolate MAV4 assessed as reduction in bacterial viability incubated for 3 days by MTT assay; assay type: organism-based; conditions: 72 h
[4] = Cytotoxicity in human monocyte-derived macrophages assessed as reduction in cell viability incubated for 3 days by alamar blue dye based assay; design: species or system Macrophage cell line; conditions: for CC50 at 72 h: human monocyte-derived macrophages; for MTC: macrophage cell line, 72 h
[5] = Safety index, ratio of MTC for test compound to MTC for thioridazine for cytotoxicity in human monocyte-derived macrophages; assay type: cell-based, Macrophage cell line
[6] = Safety index, ratio of MTC for test compound to MTC for chlorpromazine for cytotoxicity in human monocyte-derived macrophages; assay type: cell-based, Macrophage cell line
Mycobacterium avium [7] = conditions: 72 h
Description: Antimycobacterial activity against Mycobacterium avium 104 assessed as reduction in bacterial viability incubated for 3 days by MTT assay

Mycobacterium avium [8] = conditions: 104 mc'2 3
Mycobacterium avium [9] = conditions: isolate MAV1
Mycobacterium avium [10] = conditions: isolate MAV2
Description: Inhibition of multidrug resistance efflux pump in Mycobacterium avium isolate MAV2 assessed as potentiation of clarithromycin -induced antibacterial activity by measuring clarithromycin MIC at 1/2 MIC incubated for 3 days by MTT assay (Rvb = >1024 ug/ml)

Mycobacterium avium [11] = conditions: 104
Mycobacterium avium [12] = conditions: 104 mc'2 4
Mycobacterium avium [13] = conditions: isolate MAV1; remark: listed apart in the source
Mycobacterium avium [14] = conditions: isolate MAV4
Mycobacterium avium [15] = conditions: isolate MAV4; remark: listed apart in the source
Mycobacterium avium [16] = conditions: 104; remark: listed apart in the source
Mycobacterium avium [17] = conditions: 104 mc'2 3; remark: listed apart in the source
Mycobacterium avium [18] = conditions: 104 mc'2 4; remark: listed apart in the source
Mycobacterium avium [19] = conditions: isolate MAV1; remark: listed apart in the source
Mycobacterium avium [20] = conditions: isolate MAV2; remark: listed apart in the source
Mycobacterium avium [21] = conditions: isolate MAV4; remark: listed apart in the source
[22] = test system: Mycobacterium avium subsp. avium ATCC 25291
Mycobacterium avium [23] = conditions: 104 mc'2 3; remark: listed apart in the source
Mycobacterium avium [24] = conditions: 104 mc'2 3; remark: listed apart in the source
Mycobacterium avium [25] = conditions: 104 mc'2 4; remark: listed apart in the source
Mycobacterium avium [26] = conditions: isolate MAV3
Mycobacterium avium [27] = conditions: isolate MAV4; remark: listed apart in the source
[28] = test system: Mycobacterium avium subsp. avium ATCC 25291; remark: listed apart in the source
[29] = test system: Mycobacterium avium subsp. avium ATCC 25291; remark: listed apart in the source
Mycobacterium avium [30] = conditions: 104 mc'2 4; remark: listed apart in the source
Mycobacterium avium [31] = conditions: isolate MAV1; remark: listed apart in the source
Description: Inhibition of multidrug resistance efflux pump in Mycobacterium avium isolate MAV1 assessed as potentiation of ofloxacin-induced antibacterial activity by measuring ofloxacin MIC at 1/2 MIC incubated for 3 days by MTT assay (Rvb = 4 ug/ml)

Mycobacterium avium [32] = conditions: isolate MAV2; remark: listed apart in the source
Description: Inhibition of multidrug resistance efflux pump in Mycobacterium avium isolate MAV2 assessed as potentiation of ofloxacin-induced antibacterial activity by measuring ofloxacin MIC at 1/4 MIC incubated for 3 days by MTT assay

Mycobacterium avium [33] = conditions: isolate MAV4; remark: listed apart in the source
[34] = test system: Mycobacterium avium subsp. avium ATCC 25291; remark: listed apart in the source
[35] = test system: Mycobacterium avium subsp. avium ATCC 25291; remark: listed apart in the source
Mycobacterium avium [36] = conditions: 104; remark: listed apart in the source
Mycobacterium avium [37] = conditions: 104; remark: listed apart in the source
Mycobacterium avium [38] = conditions: 104 mc'2 3; remark: listed apart in the source
Mycobacterium avium [39] = conditions: 104 mc'2 4; remark: listed apart in the source
Mycobacterium avium [40] = conditions: isolate MAV3; remark: listed apart in the source
Mycobacterium avium [41] = conditions: isolate MAV4; remark: listed apart in the source
Description: Inhibition of multidrug resistance efflux pump in Mycobacterium avium isolate MAV4 assessed as potentiation of ethidium bromide-induced antibacterial activity by measuring ethidium bromide MIC at 1/4 MIC incubated for 3 days by MTT assay

[42] = test system: Mycobacterium avium subsp. avium ATCC 25291; remark: listed apart in the source
Description: Inhibition of multidrug resistance efflux pump in Mycobacterium avium ATCC 25291 assessed as potentiation of ethidium bromide-induced antibacterial activity by measuring ethidium bromide MIC at 1/2 MIC incubated for 3 days by MTT assay (Rvb = 50 ug/ml)

CCCOc1ccc(-c2cn(CCN3CCCCCC3)c3ccccc3c2=O)cc1
MIC (Mycobacterium avium [1]): 256 µg/mL (≈ 633 µM) | MIC (Mycobacterium avium [2]): 128 µg/mL (≈ 316 µM) | MIC (Mycobacterium avium [3]): 256 µg/mL (≈ 633 µM) | CC50 at 72 h [4]: 50 µM | MTC [4]: 20 µM | selectivity ratio [5]: 4 to 6 | selectivity ratio [6]: 2 to 4 | MIC (Mycobacterium avium [7]): 256 µg/mL (≈ 633 µM) | MIC (Mycobacterium avium [8]): 32 µg/mL (≈ 79.1 µM) | MIC (Mycobacterium avium [9]): < 0.125 µg/mL | MIC (Mycobacterium avium [10]): < 4 µg/mL | MIC (Mycobacterium avium [11]): 8 µg/mL (≈ 19.8 µM) | MIC (Mycobacterium avium [12]): < 4 µg/mL | MIC (Mycobacterium avium [13]): < 4 µg/mL | MIC (Mycobacterium avium [14]): < 4 µg/mL | MIC (Mycobacterium avium [15]): 8 µg/mL (≈ 19.8 µM) | MIC (Mycobacterium avium [16]): < 4 µg/mL | MIC (Mycobacterium avium [17]): < 4 µg/mL | MIC (Mycobacterium avium [18]): 128 µg/mL (≈ 316 µM) | MIC (Mycobacterium avium [19]): < 4 µg/mL | MIC (Mycobacterium avium [20]): < 4 µg/mL | MIC (Mycobacterium avium [21]): < 2 µg/mL | MIC [22]: 8 µg/mL (≈ 19.8 µM) | MIC (Mycobacterium avium [23]): < 0.125 µg/mL | MIC (Mycobacterium avium [24]): 2 µg/mL (≈ 4.94 µM) | MIC (Mycobacterium avium [25]): < 0.125 µg/mL | MIC (Mycobacterium avium [26]): 0.5 µg/mL (≈ 1.24 µM) | MIC (Mycobacterium avium [27]): < 0.25 µg/mL | MIC [28]: < 0.25 µg/mL | MIC [29]: 8 µg/mL (≈ 19.8 µM) | MIC (Mycobacterium avium [30]): 2 µg/mL (≈ 4.94 µM) | MIC (Mycobacterium avium [31]): < 0.0625 µg/mL | MIC (Mycobacterium avium [32]): 2 µg/mL (≈ 4.94 µM) | MIC (Mycobacterium avium [33]): < 0.125 µg/mL | MIC [34]: < 0.5 µg/mL | MIC [35]: 8 µg/mL (≈ 19.8 µM) | MIC (Mycobacterium avium [36]): < 0.195 µg/mL | MIC (Mycobacterium avium [37]): 1.56 µg/mL (≈ 3.86 µM) | MIC (Mycobacterium avium [38]): < 0.195 µg/mL | MIC (Mycobacterium avium [39]): 0.39 µg/mL (≈ 0.964 µM) | MIC (Mycobacterium avium [40]): 12.5 µg/mL (≈ 30.9 µM) | MIC (Mycobacterium avium [41]): 3.12 µg/mL (≈ 7.72 µM) | MIC [42]: < 0.39 µg/mL

CSc1ccc2c(c1)N(CCC1CCCCN1C)c1ccccc1S2 (centres undefined) [THIORIDAZINE]
MIC (Mycobacterium avium [1]): 30 µg/mL (≈ 81 µM) | MIC (Mycobacterium avium [2]): 30 µg/mL (≈ 81 µM) | MIC (Mycobacterium avium [3]): 30 µg/mL (≈ 81 µM) | CC50 at 72 h [4]: 13.8 µM | MTC [4]: 2.5 µM | MIC (Mycobacterium avium [7]): 30 µg/mL (≈ 81 µM) | MIC (Mycobacterium avium [8]): > 512 µg/mL | MIC (Mycobacterium avium [9]): 0.0625 µg/mL (≈ 0.169 µM) | MIC (Mycobacterium avium [10]): 256 µg/mL (≈ 691 µM) | MIC (Mycobacterium avium [11]): 256 µg/mL (≈ 691 µM) | MIC (Mycobacterium avium [12]): 128 µg/mL (≈ 345 µM) | MIC (Mycobacterium avium [13]): < 4 µg/mL | MIC (Mycobacterium avium [14]): 64 µg/mL (≈ 173 µM) | MIC (Mycobacterium avium [15]): 256 µg/mL (≈ 691 µM) | MIC (Mycobacterium avium [16]): 128 µg/mL (≈ 345 µM) | MIC (Mycobacterium avium [17]): < 4 µg/mL | MIC (Mycobacterium avium [18]): > 512 µg/mL | MIC (Mycobacterium avium [19]): < 4 µg/mL | MIC (Mycobacterium avium [20]): 128 µg/mL (≈ 345 µM) | MIC (Mycobacterium avium [21]): 64 µg/mL (≈ 173 µM) | MIC [22]: 32 µg/mL (≈ 86.3 µM) | MIC (Mycobacterium avium [23]): < 0.125 µg/mL | MIC (Mycobacterium avium [24]): 4 µg/mL (≈ 10.8 µM) | MIC (Mycobacterium avium [25]): 0.5 µg/mL (≈ 1.35 µM) | MIC (Mycobacterium avium [26]): 2 µg/mL (≈ 5.4 µM) | MIC (Mycobacterium avium [27]): 4 µg/mL (≈ 10.8 µM) | MIC [28]: 8 µg/mL (≈ 21.6 µM) | MIC [29]: 32 µg/mL (≈ 86.3 µM) | MIC (Mycobacterium avium [30]): 8 µg/mL (≈ 21.6 µM) | MIC (Mycobacterium avium [31]): < 0.0625 µg/mL | MIC (Mycobacterium avium [32]): 1 µg/mL (≈ 2.7 µM) | MIC (Mycobacterium avium [33]): 4 µg/mL (≈ 10.8 µM) | MIC [34]: 4 µg/mL (≈ 10.8 µM) | MIC [35]: 16 µg/mL (≈ 43.2 µM) | MIC (Mycobacterium avium [36]): 6.25 µg/mL (≈ 16.9 µM) | MIC (Mycobacterium avium [37]): 12.5 µg/mL (≈ 33.7 µM) | MIC (Mycobacterium avium [38]): 1.56 µg/mL (≈ 4.21 µM) | MIC (Mycobacterium avium [39]): 12.5 µg/mL (≈ 33.7 µM) | MIC (Mycobacterium avium [40]): 12.5 µg/mL (≈ 33.7 µM) | MIC (Mycobacterium avium [41]): 25 µg/mL (≈ 67.5 µM) | MIC [42]: 6.25 µg/mL (≈ 16.9 µM)
